Laboratory results reported in US8148360B2, “Supramolecular metallic complexes exhibiting both DNA binding and photocleavage” (Virginia Tech Intellectual Properties, Inc., priority 2006, dated 2012).

What was measured:
[1] = tested on: pUC18 circular plasmid DNA; test: DNA photocleavage by agarose gel electrophoresis (form I to form II conversion) after visible light photolysis; assay type: biochemical; conditions: for DNA photocleavage: 10:1 ratio; for DNA photocleavage (supercoiled form I to nicked form II): 20:1 BP:MC
From the text: (§1) FIG. 6. DNA binding and photocleavage by [{(bpy)2Ru(dpp)}2Ru(dpp)PtCl2](PF6)6 (Ru3Pt) assayed with 0.8% agarose gel electrophoresis post stained with ethidium bromide using circular plasmid pUC18 DNA with comparison to cis-[Pt(NH3)2Cl2] (Cisplatin) and [{(bpy)2Ru(dpp)}2Ru(dpp)](PF6)6 (Ru3) (bpy=2,2′-bipyridine, dpp=2,3-bis(2-pyridyl)pyrazine). Lanes λ are the molecular weight standards (23, 9.4, 6.6, 4.4, 2.3, and 2.0 kb), lanes C are the DNA controls showing mostly form I and minor form II pUC18 DNA. The cisplatin lane 1 is a 5:1 base pair (BP):metal complex (MC) and lane 2 a 20:1 BP:MC incubated for 1 hour at 37° C. The Ru3 lane 1 is a 20:1 BP:MC incubated for 1 hour at 37° C. The Ru3Pt lane 1 is 20:1 BP:MC kept in the dark at room temperature, lane 2 is 20:1 BP:MC incubated for 1 hour in the dark at 37° C., lane 3 is 20:1 BP:MC photolyzed with 450 nm-1000 nm light for 1 hour under atmospheric conditions, lane 4 is 20:1 BP:MC photolyzed with 450 nm-1000 nm light for 1 hour under argon.
(§2) FIG. 9. DNA binding and photocleavage by [{(bpy)2Ru(dpp)}2Ru(dpq)PtCl2](PF6)6. Lane 1 is the molecular weight standard, lane C is the pUC18 DNA plasmid control, lane 25° is 10:1 metal complex:DNA base pair incubated at 25° C., lane 37° is the 10:1 ratio incubated at 37° C., Ar* is the 10:1 ratio photolyzed for 1 hour under Ar, lane O2* is the 10:1 ratio photolyzed under ambient atmosphere.
as §2, with “10.” for “9.”, “[{(bpy)2Os(dpp)}2Ru(dpq)PtCl2](PF6)6.” for “[{(bpy)2Ru(dpp)}2Ru(dpq)PtCl2](PF6)6.”
(§3) The DNA binding and photocleavage ability of the exemplary complex, [{(bpy)2Ru(dpp)}2Ru(dpp)PtCl2](PF6)6, has been investigated using gel electrophoresis. The cis-dichloroplatinum(II) moiety is designed to allow the complex to bind covalently to DNA. The Ru polyazine units are designed to allow the complex to undergo sensitization of molecular oxygen leading to DNA photocleavage. The presence of the cis-dichloroplatinum(II) sub-unit delivers the Ru polyazine sub-unit to its target prior to optical excitation. DNA interactions of [{(bpy)2Ru(dpp)}2Ru(dpp)PtCl2](PF6)6 were compared to a binding analyses of Ru3 and cisplatin using gel electrophoresis and pUC18 circular plasmid DNA, (2686 BP, Bayou Biolabs) post-stained with ethidium bromide. Lanes λ are the molecular weight standards (23, 9.4, 6.6, 4.4, 2.3, and 2.0 kb). Lanes C are the pUC18 DNA controls, showing primarily the supercoiled (form I) and minor nicked (form II) forms of the circular pUC18 plasmid. The lane 1 for cisplatin is a 5:1 base pairs (BP):metal complex (MC) and lane 2 is a 20:1 BP:MC solution incubated at 37° C. for 1 hr. […] Lane 1 of “Ru3Pt” is the 20:1 DNA BP: MC solution of [{(bpy)2Ru(dpp)}2Ru(dpp)PtCl2](PF6)6 incubated at 37° C. for 1 hr. […] Lane 4 is a 20:1 BP:MC solution photolyzed at λ>450 nm for 1 hour, under argon.
A mixed-metal complex, [{(bpy)2Ru(dpp)}2Ru(dpq)PtCl2](PF6)6, was synthesized using bridging ligands dpq (2,3-bis(2-pyridyl)quinoxaline), and dpp (the ligand described in Example 1). The complex was tested for its ability to bind DNA and to photocleave the DNA in an O2 dependent manner by incubating the complex with DNA in the ambient atmosphere and under argon. […] This illustrates the metal complex binds to DNA and photocleaves DNA in a oxygen dependent manner.
A mixed-metal complex, [{(bpy)2Os(dpp)}2Ru(dpq)PtCl2](PF6)6, was synthesized using bridging ligands dpq (2,3-bis(2-pyridyl)quinoxaline), and dpp (as described in Example 3) but using osmium as a light absorbing metal component. […] This illustrates this metal complex also binds to DNA and photocleaves DNA in a oxygen dependent manner.

[2] = tested on: pUC18 circular plasmid DNA; test: DNA binding by agarose gel electrophoresis (migration shift of plasmid); conditions: for DNA binding: 10:1 metal complex:DNA base pair, with and without O2
From the text: as §1, §2
as §2, with “10.” for “9.”, “[{(bpy)2Os(dpp)}2Ru(dpq)PtCl2](PF6)6.” for “[{(bpy)2Ru(dpp)}2Ru(dpq)PtCl2](PF6)6.”
as §3
A mixed-metal complex, [{(bpy)2Ru(dpp)}2Ru(dpq)PtCl2](PF6)6, was synthesized using bridging ligands dpq (2,3-bis(2-pyridyl)quinoxaline), and dpp (the ligand described in Example 1). The complex was tested for its ability to bind DNA and to photocleave the DNA in an O2 dependent manner by incubating the complex with DNA in the ambient atmosphere and under argon. […]

[3] = photolyzed under ambient atmosphere (O2)

| Substance | DNA photocleavage ([1]; photolyzed for 1 hour under Ar) | DNA photocleavage [1, 3] | DNA binding [2] | other results |
| --- | --- | --- | --- | --- |
| [{(bpy)2Os(dpp)}2Ru(dpq)PtCl2](PF6)6 | not in the absence of O2 | cleaved only when O2 was present | effective in binding to DNA | – |
| [{(bpy)2Ru(dpp)}2Ru(dpp)PtCl2](PF6)6 [Ru3Pt] | – | – | – | DNA photocleavage (supercoiled form I to nicked form II) ([1]; photolyzed λ>450 nm for 1 hour, under argon): no DNA photocleavage is observed; DNA photocleavage (supercoiled form I to nicked form II) ([1]; photolyzed λirr>450 nm for 1 hour, under atmospheric conditions): appreciable conversion of the supercoiled (form 1) to nicked (form II) DNA; DNA binding (migration of pUC18 through the gel) ([2]; Ru3Pt lane 1, 20:1 BP:MC, b60 prints incubated at 37° C. for 1 hr, FIG. 6 legend prints kept in the dark at room temperature): decreased migration of the form I pUC18 through the gel |
| [{(bpy)2Ru(dpp)}2Ru(dpp)](PF6)6 [Ru3, reference compound] | – | – | – | DNA binding (migration of pUC18 through the gel) ([2]; 20:1 BP:MC, incubated at 37° C. for 1 hr): migration of the DNA is not impacted |
| [{(bpy)2Ru(dpp)}2Ru(dpq)PtCl2](PF6)6 | not in the absence of O2 | cleaved only when O2 was present | effective in binding to DNA | – |
| cis-[Pt(NH3)2Cl2] [cisplatin, reference compound] | – | – | – | DNA binding (migration of pUC18 through the gel) ([2]; 5:1 and 20:1 BP:MC, incubated at 37° C. for 1 hr): migration of form I of the pUC18 is retarded |
